System: Lactobacillus acidophilus ATCC 314
Test: Test 1: comparison between nutrient substrates (use of substrate added to MRS broth base by Lactobacillus)
Type: cell-based, Lactobacillus acidophilus ATCC 314 (human origin)
Conditions: for Lactic acid (%): HPLC; for Lactic acid (%) / D.O. / pH: 37°C, 24 hours; for D.O.: optical density of the culture; for growth and production of lactic acid: concentrations from 0.5 to 2.0%; for pH: starting pH 5.7±0.2
Text: Since the Lactobacilli control the vaginal pH by means of the production of lactic acid it appeared to be useful to verify, both directly and indirectly, their capacity to utilise the various substrates proposed for the production of lactic acid and consequently their utility in the formulation of the composition.
• Lactobacillus acidophilus ATCC 314 (human origin) • Lactobacillus acidophilus wt (from vaginal swab)
• MRS broth (Lactobacillus broth according to De Man, Rogose) Merck • MRS broth base (without D(+)-glucose) • Series of MRS broth base media to which maltodextrins were added in percentages lying between 0.1 and 5% • Series of MRS broth base media to which glycogen was added in quantities lying between 0.5 and 2% • Series of MRS broth base media to which glucose was added in quantities lying between 0.1 and 2% • Series of MRS broth base media to which lactose was added in quantities lying between 0.5 and 2% Note: the pH of the media was always 5.7±0.2.
After having prepared fresh cultures of Lactobacilli in agar, an inoculation into five ml of MRS broth was incubated at 37°C for 24 hours. Aliquotes were prepared from 60 ml of the previously described media and in each of these were inoculated 600 µl of the culture in agar, with subsequent incubation at 37°C for 24 hours. As negative control aliquotes of 3 ml of the above-described media without inoculation of Lactobacilli were incubated. As positive control Merck MRS broth was utilised.
After 24 hours of incubation the optical density of the cultures was measured, the pH of the media was determined after centrifugation and filtration of the supernatant with a 0.45µ filter. The lactic acid present in the culture was also quantified by the HPLC method utilising as a control a laboratory standard of the same. These evaluation parameters have the following significance: • An increase in optical density confirms the growth of Lactobacilli; • Reduction in pH indicates the formation of lactic acid; • The quantitative determination of the lactic acid measures the efficiency of the use of the nutrient substrate by the Lactobacilli.

[1] = result in words, concentration of 0.1%
[2] = substrate 0.5 % in MRS broth base
[3] = substrate 1.0 % in MRS broth base
[4] = substrate 2.0 % in MRS broth base

Row | SMILES | Lactic acid (%) (substrate 0.1 %) | Lactic acid (%) (substrate 0.5 %) | Lactic acid (%) (substrate 1.0 %) | Lactic acid (%) (substrate 2.0 %) | D.O. (substrate 0.1 %) | D.O. (substrate 0.5 %) | D.O. (substrate 1.0 %) | D.O. (substrate 2.0 %) | utilised for the growth of Lactobacillus [1] | utilised for the production of lactic acid [1] | growth and production of lactic acid (result in words) | pH (substrate 0.1 % in MRS broth base) | pH [2] | pH [3] | pH [4]
1 | OC[C@H]1OC(O)[C@H](O)[C@@H](O)[C@@H]1O (stereo partly shown) [GLU, Glucose] | 0.17 | 0.90 | 1.80 | 2.43 | 0.665 | 1.540 | 2.593 | 2.540 | significant | hardly utilised | utilised in a useful and dose-dependent manner | 5.56 | 4.74 | 4.33 | 4.57
2 | OC[C@H]1O[C@@H](O[C@H]2[C@H](O)[C@@H](O)C(O)O[C@@H]2CO)[C@H](O)[C@@H](O)[C@H]1O (stereo partly shown) [LA, Lactose] |  | <0.10 | <0.10 | <0.10 |  | 0.218 | 0.221 | 0.179 |  |  | rather poor |  | 5.88 | 5.91 | 5.94
